Key:
Adenosine A2A = target: T1, Adenosine A2A (Homo sapiens, UniProt P29274); experiment: Off-target screening (Eurofins Cerep), A2A; type: binding
T1 construct: Eurofins Cerep SA (contract screening)

OSC-19 oral tumors = experiment: NIR fluorescence imaging, OSC-19 oral tumors; type: in vivo, mice; conditions: orthotopic OSC-19 tongue model; 10 nmol; 4 h; Pearl; n = 2; mean ± SD
Description: To induce subcutaneous tumors, colorectal cancer cells (HT-29) were injected at 4 sites on the back (500,000 cells per spot). Subsequently, these colorectal tumor cells were transplanted on the colon of other mice, as described by Tseng et al.. Approximately 500,000 pancreatic tumor cells (BxPC-3) were injected into the pancreas, as previously described by Kim et al.. Approximately 40,000 oral tumor cells (OSC-19) were injected in the tongue, as previously described by van Driel et al.. Approximately 500,000 breast tumor cells (MCF-7) were injected in both sides of the mammary fat pad to induce breast cancer tumors.
All animals were imaged using a Pearl® imager (LI-COR, Lincoln, NE) and an original FLARE® prototype. Animals with HT-29 tumors were imaged at 4 and 24 h post injection; animals with BxPC-3 and OSC-19 tumors at 4 h only. Animals with MCF-7 tumors were imaged at 0.5, 1, 2, 4, 6, 8, 24 and 48 h post injection. […] TBRs were calculated by dividing the tumor signal by the background signal. […]
(§1) Mice bearing orthotopic OSC-19 tumors (n = 2) were administrated with 10 nmol cRGD-ZW800-1 and imaged at 4 h. […] In vivo TBRs were calculated by dividing the mean fluorescence signals of tumors by the mean of surrounding tissue. Ex vivo organ-to-tumor ratios were calculated by dividing the fluorescence intensity of the organ by that of the tumor.

dopamine receptor D2S = target: T2, dopamine receptor D2S (Homo sapiens, UniProt P14416); experiment: Off-target screening (Eurofins Cerep), D2S; type: binding
T2 construct: Eurofins Cerep SA (contract screening)
T2 sequence (P14416 1-414 isoform P14416-2): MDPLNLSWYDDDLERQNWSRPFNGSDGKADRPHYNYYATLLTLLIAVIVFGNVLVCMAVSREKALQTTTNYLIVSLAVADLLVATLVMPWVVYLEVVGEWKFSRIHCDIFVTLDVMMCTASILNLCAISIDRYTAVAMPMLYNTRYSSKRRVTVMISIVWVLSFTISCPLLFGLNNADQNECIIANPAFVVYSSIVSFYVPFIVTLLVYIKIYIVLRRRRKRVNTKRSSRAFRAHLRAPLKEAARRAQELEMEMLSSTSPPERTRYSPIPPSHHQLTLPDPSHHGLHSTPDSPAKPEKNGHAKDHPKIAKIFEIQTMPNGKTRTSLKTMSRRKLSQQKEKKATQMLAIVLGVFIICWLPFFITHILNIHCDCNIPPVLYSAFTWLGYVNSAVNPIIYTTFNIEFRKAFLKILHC

Acetylcholinesterase = target: T3, Acetylcholinesterase (Homo sapiens, UniProt P22303); experiment: Off-target screening (Eurofins Cerep), acetylcholinesterase; type: biochemical
T3 construct: Eurofins Cerep SA (contract screen)
T3 sequence (P22303 32-614): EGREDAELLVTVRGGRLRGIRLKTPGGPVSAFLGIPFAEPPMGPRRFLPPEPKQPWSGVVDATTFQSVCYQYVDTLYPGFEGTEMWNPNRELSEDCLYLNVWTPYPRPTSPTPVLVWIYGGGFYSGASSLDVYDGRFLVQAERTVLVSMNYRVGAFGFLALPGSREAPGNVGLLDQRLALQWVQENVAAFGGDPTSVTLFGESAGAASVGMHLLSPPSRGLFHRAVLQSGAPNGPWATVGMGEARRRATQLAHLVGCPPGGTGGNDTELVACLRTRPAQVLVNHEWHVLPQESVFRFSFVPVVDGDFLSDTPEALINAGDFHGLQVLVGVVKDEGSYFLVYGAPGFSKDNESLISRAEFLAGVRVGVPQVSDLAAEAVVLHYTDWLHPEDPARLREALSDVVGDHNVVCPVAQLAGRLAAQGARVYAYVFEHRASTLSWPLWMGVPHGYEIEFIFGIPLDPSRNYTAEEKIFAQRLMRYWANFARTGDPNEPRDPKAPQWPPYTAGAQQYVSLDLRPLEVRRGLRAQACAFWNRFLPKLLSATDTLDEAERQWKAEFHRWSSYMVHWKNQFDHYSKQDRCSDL

[1] = Toxicology study in rats (unpublished data)
Adrenergic α1A = target: T4, Adrenergic α1A (Homo sapiens, UniProt P35348); experiment: Off-target screening (Eurofins Cerep), α1A; type: binding
T4 construct: Eurofins Cerep SA (contract screening)
T4 sequence (P35348 1-466): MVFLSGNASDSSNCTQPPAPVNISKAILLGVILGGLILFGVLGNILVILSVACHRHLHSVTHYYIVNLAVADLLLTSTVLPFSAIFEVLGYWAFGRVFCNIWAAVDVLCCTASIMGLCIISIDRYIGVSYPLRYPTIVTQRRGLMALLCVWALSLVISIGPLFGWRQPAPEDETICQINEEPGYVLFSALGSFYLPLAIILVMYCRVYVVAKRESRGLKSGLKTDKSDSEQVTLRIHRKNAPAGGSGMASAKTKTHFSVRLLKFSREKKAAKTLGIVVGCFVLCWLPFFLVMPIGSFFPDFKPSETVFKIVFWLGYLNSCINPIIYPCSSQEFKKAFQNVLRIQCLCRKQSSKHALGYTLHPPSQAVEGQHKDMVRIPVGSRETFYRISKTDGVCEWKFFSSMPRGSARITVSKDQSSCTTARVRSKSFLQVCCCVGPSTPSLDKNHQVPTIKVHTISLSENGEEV
Source text: Off-target interactions are binding of tracers to other components on the cell surface than the actual target site. These non-specific interactions are often of low affinity and easily missed, but can have significant effects. We outsourced the screening for in vitro for off-target interactions of cRGD-ZW800-1 to Eurofins Cerep SA, Le bois l’Evêque, France. They assessed the percentage of inhibition of a reference compound in 44 selected targets, including G protein-coupled receptors (GPCRs), transporters, ion channels, nuclear receptors, kinases and other non-kinase enzymes. These targets were recommended by four major pharmaceutical companies. The complete list is included in Supplementary Table 1 of the Supplementary Data. Each assay was performed twice using 10 μM cRGD-ZW800-1 and a reference compound. Inhibition higher than 50% was considered to represent a significant effect of cRGD-ZW800-1. Results showing between 20% and 50% were considered weak to moderate effects, while lower than 20% was not considered significant and mostly attributable to variability of the signal around the control level.

PDE4D2 = target: T5, PDE4D2 (Homo sapiens, UniProt Q08499); experiment: Off-target screening (Eurofins Cerep), PDE4D2; type: biochemical
T5 construct: Eurofins Cerep SA (contract screen)
T5 sequence (Q08499 303-809): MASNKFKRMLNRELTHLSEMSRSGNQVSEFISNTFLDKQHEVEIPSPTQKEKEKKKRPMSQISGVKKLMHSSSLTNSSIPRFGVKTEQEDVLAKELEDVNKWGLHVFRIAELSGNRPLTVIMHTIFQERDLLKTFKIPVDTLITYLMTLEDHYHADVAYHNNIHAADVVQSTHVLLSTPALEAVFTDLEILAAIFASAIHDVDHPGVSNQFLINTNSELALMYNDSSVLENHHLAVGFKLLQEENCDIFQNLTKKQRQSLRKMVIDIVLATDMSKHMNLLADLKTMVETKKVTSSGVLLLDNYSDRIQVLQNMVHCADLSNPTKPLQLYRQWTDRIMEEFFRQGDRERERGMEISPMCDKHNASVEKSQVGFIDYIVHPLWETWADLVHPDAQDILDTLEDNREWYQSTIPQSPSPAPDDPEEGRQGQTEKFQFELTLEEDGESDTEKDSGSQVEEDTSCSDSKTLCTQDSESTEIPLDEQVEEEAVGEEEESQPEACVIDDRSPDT

HT-29 tumors and organs = experiment: Ex vivo biodistribution, HT-29 model; type: in vivo, mice; conditions: 24 h post injection
Description: After imaging, mice were sacrificed and OSC-19 and BxPC-3 tumors were quickly frozen in isopentane at -80°C for histological evaluation. Tissues were sectioned at 10 μm and fluorescence imaging was performed using fluorescence microscopy (Nikon eclipse e800, Nikon, Amsterdam, The Netherlands). All histologic sections were stained with standard hematoxylin-eosin stain (HE). Organs of mice with colorectal and pancreatic cancer were collected and imaged using the Pearl® to evaluate biodistribution.
Mice were administered with 0.25 (HT-29 model only), 1.0, 10, or 30 nmol cRGD-ZW800-1 to evaluate tumor signals, biodistribution, and to calculate TBRs (n = 3 per dose group). At 4 h (BxPC-3 model) and 24 h (HT-29 model) after injection, mice were fully dissected and fluorescence intensity of their organs was measured.
as §1, with “h. Mice bearing orthotopic MCF-7 tumors (n = 2) were injected with 10 nmol cRGD-ZW800-1 and imaged at 0.5, 1, 2, 4, 6, 8, 24, and 48 h post injection.” for “h.”

[2] = 10 μM, mean of 2, read-out: % of Control Specific Binding Mean
[3] = 10 μM cRGD-ZW800-1, format H, An, performed twice, read-out: % Inhibition of Control Specific Binding

T1 sequence (P29274 whole entry): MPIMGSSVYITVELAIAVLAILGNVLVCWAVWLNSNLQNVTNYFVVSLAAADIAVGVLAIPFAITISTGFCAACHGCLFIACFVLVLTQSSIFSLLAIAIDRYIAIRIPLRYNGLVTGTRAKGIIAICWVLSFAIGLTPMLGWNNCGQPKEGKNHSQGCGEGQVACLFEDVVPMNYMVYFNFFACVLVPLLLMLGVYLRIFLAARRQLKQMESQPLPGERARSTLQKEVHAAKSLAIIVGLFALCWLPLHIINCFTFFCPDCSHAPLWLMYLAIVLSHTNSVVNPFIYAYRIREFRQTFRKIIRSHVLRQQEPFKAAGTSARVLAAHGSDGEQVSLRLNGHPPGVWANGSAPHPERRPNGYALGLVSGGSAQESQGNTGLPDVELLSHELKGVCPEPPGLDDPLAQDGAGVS

With `CC1(C)C(/C=C/C2=C(Oc3ccc(CCC(=O)NCCCC[C@@H]4NC(=O)[C@@H](Cc5ccc(O)cc5)NC(=O)[C@H](CC(=O)O)NC(=O)CNC(=O)[C@H](CCCNC(=N)N)NC4=O)cc3)C(=C/C=C3/N(CCC[N+](C)(C)C)c4ccc(S(=O)(=O)O)cc4C3(C)C)/CCC2)=[N+](CCC[N+](C)(C)C)c2ccc(S(=O)(=O)O)cc21` [cRGD-ZW800-1] the inhibition at 10 µM (Adenosine A2A; 10 μM cRGD-ZW800-1, format H, Ag, performed twice, read-out: % Inhibition of Control Specific Binding) was 8%, the remaining activity at 10 µM (Adenosine A2A; [2]) was 91.9% and the “mean TBR” value (OSC-19 oral tumors) was 5.4 ± 1.1. For the same compound, the inhibition at 10 µM (dopamine receptor D2S; [3]) was 22%, the remaining activity at 10 µM (dopamine receptor D2S; [2]) was 78.2% and the inhibition at 10 µM (Acetylcholinesterase; 10 μM cRGD-ZW800-1, format H, performed twice, read-out: % Inhibition of Control Specific Binding) was 2%. For the same compound, the remaining activity at 10 µM (Acetylcholinesterase; [2]) was 98.4%, the “safe starting dose for first in-human studies” value ([1]; 10% of the HED of the NOAEL (FDA recommendation)) was 0.08 mg/kg and the “human equivalent dose (HED) of the NOAEL” value ([1]; NOAEL of 5.0 mg/kg in rats adjusted for body surface area) was 0.80 mg/kg. The toxicology findings ([1]; rats, intravenous injection of 5.0 mg/kg, unpublished data) was “neither clinical symptoms, nor treatment-related histopathological, biochemical, and hematological abnormalities”, the “no observable adverse event level (NOAEL)” value ([1]; rats, intravenous injection, unpublished data) was “at least 5.0 mg/kg” and the inhibition at 10 µM (Adrenergic α1A; [3]) was 9%. The remaining activity at 10 µM (Adrenergic α1A; [2]) was 90.6%, the inhibition at 10 µM (PDE4D2; read-out: % Inhibition of Control Specific Binding) was 10% and the remaining activity at 10 µM (PDE4D2; read-out: % of Control Specific Binding Mean) was 90.3%. The “fluorescence signal in kidneys (all dose groups), liver and skin (only 10 and 30 nmol) compared to tumor” value (HT-29 tumors and organs) was “higher” and the “tumor fluorescence relative to lungs, pancreas, muscle, gallbladder, brain, and blood” value (HT-29 tumors and organs; all dose groups) was “more than twice as fluorescent”.
